The values below come from patent US20050249697A1, “Compositions and methods for the inhibition of bone growth and resorption” (priority 2003, published 2005).

Series [1] is described as follows: Plasma diflunisal in rats after subcutaneous polydiflunisal microspheres or oral diflunisal. Type of series: in vivo. The settings on record: single oral dose. From the text: Processes for making nanoparticle formulations are also known in the art, and need not be fully described in this patent. The surface eroding property of polymers such as polydiflunisal makes for solid, non-porous particles, e.g. nano- and micro-spheres, useful for sustained drug delivery, and their release duration may be controlled by varying particle diameter, e.g. larger microparticles biodegrade more slowly than smaller ones. Nano- and microparticles for pharmaceutical formulations may be designed to deliver an agent(s) or compound(s) incorporated into the monomer, oligomer or polymer backbone and optionally an agent(s) blended, appended to, or dispersed in the polymer. […] Microparticle formulations of about 1, 2, 5, 7.5, 10, 25, 50 to about 10, 15, 30, 50, 75, 100, 250 μm are suitable for use in a pharmaceutical, veterinary or other type of formulations. Similarly, nanoparticle formulations may be administered for various applications, having a particle size about 1, 2, 5, 10 to about 15, 20, 30, 50, 100, 250, 500 nm, or various ranges between any two of these values. […]

For series [2] the following is noted: cited from earlier work.
The conditions of series [3]: cited from earlier work; for Plasma Levels: Clinical Use, Anti-Inflammatory Effectiveness; for Plasma half-life: in vivo.
For series [4] the following is noted: in vivo; cited from earlier work.
Series [5] concerns Long Bone Critical Size Defect. The series is described as follows: Long bone critical size defect model: bone formation and resorption. In kind it is in vivo, Sprague Dawley retired breeder male rats. As to conditions: implant of polymer microspheres containing ≧0.5 g salicylic acid/cm^3 in a femur. An excerpt: Nineteen (19) Sprague Dawley retired breeder male rats were employed in this experiment. In each animal, a 5 mm mid-shaft defect was created using an oscillating saw. The limbs were then stabilized using a custom 4-hole polymer plate and screws. In two groups of 6 rats each, the defects were filled with either the homopolymer or the copolymer. The remaining 7 rats had their defects filled with a collagen sponge to serve as controls. An equal number of animals from each group was sacrificed at 4 and 8 weeks post surgery. The only exception was that four control rats were used in the 8-week group. The defect sites were radiographed using a Hewlett-Packard Faxitron model 43804 and high resolution mammography film every 2 weeks until sacrifice. At term, the limbs were collected and prepared for non-decalcified histology. Mid-sagittal ground sections were prepared and stained using Sanderson's Rapid Bone Stain and Stevenel's Blue. New bone formed between inner-most fixation screws was measured on 2 slides per animal and averaged. Bone resorption, or loss, was also measured by approximating the original contours of the cortices, and measuring the difference in area relative to the remaining bone.

For series [6] the following is noted: cited from earlier work. The source holds these as a separate data set.
The conditions of series [7]: cited from earlier work. The source holds these as a separate data set.

Like-named read-outs stand apart in the source and are kept apart here.

For orientation: LD50 means the dose expected to kill half of the subjects tested. Turning to `O=C(O)c1cc(-c2ccc(F)cc2F)ccc1O` [Diflunisal, 5-(2,4-difluoro-phenyl) salicylic acid], in series [1], the “plasma drug level after dosing” value is reported as “declined rapidly”. Also, the “Water Solubility” value in series [2] is on record as “Very Low”. In series [3], the “Plasma Levels” value was 50 to 190 µg/mL and the “Plasma half-life” value was 8 to 12 h. In series [3] (Metabolism), the “No. Metabolites” value was 2 and the “Where Metabolized” value is recorded as “Liver, Intestine”. Besides, in series [4], the LD50 was 439 mg/kg.

In the case of `O=C(O)c1ccccc1O` [Salicylic Acid], the “effect of local delivery at site of bone defect or injury” value in series [5] is “prevents new bone growth, degradation and resorption”. Also, the “Water Solubility” value in series [2] is reported as “High”. In series [3], the “Plasma Levels” value is 150 to 300 µg/mL and the “Plasma half-life” value is 2.5 h.

Take `O=C(O)CCCCCCCCC(=O)O` [Sebacic Acid]: the “Rat Oral LD50” value in series [6] (oral) was 14,470 mg/kg.

In the case of `O=C(O)CCC(=O)O` [Succinic Acid], the “Rat Oral LD50” value in series [6] (in vivo, po) is on record as 8,530 mg/kg.

In the case of `CN1CC[C@]23c4c5ccc(O)c4O[C@H]2[C@@H](O)C=C[C@H]3[C@H]1C5` [morphine], the pain relief entry was “profound pain relief” in series [7] (1 mg injected into chronically-inflamed gum tissue) and “pain relief similar to that of 4 mg dexamethasone” in series [7] (intra-articular injection of 3 mg in RA patients).
